The source of these data is patent publication US6407227B1, “Process for the crystallization of lactitol” (Xyrofin Oy, priority 1997, dated 2002).

The nature of data set [1]: Solubility Test 1: equilibrium solubility of lactitol crystals in water. It is filed as physicochemical. The procedure: The determination of the solubility and stability of lactitol crystals in water was made as follows:
The lactitol, which was used in the tests, was high grade lactitol monohydrate Lactitol MC (batch 21769) manufactured by Xyrofin OY, Finland according to EP Patent 0456636. This monohydrate was also used as seed crystals. When lactitol dihydrate was studied at 45° C. and 55 ° C., lactitol dihydrate produced at the applicant's research laboratory Dec. 20, 1994 (crystallization No. 3) was used both for solution and as seed crystals. […] The water, which was used, was distilled water.
At 35° C. the supersaturation was 10 g/100 g. […] The solutions were made by dissolving the monohydrate into water at a temperature above the solubility temperature. The solutions which were used at 65° C. and 75° C. were made by evaporating with a vacuum rotating flask evaporator. The concentrations were determined by refractometric indexes (RI). At the temperatures of 5° C., 10° C. and 15° C. the solutions were made in a 2-liter jacketed vessel. The other solutions were made in 200 ml or 250 ml measurement bottles.
When the lactitol had dissolved, the solution was cooled to the test temperature. The solution was seeded with softly crushed monohydrate crystals (2 tests with dihydrate crystals). In the measurement bottles the solutions were stirred with a magnetic stirrer and in the jacketed vessel with a motor driven mixer.
The crystallization of lactitol and the equilibration of the solution was monitored by measuring the refractometric index (RI) of the mother liquid. Before taking a sample, the crystals were allowed settle on the bottom of the vessel, so that the measurement of the RI would be as exact as possible. […] Thus, the RI of the mother liquid was measured from a suspension of crystals and solution. At the end point of the measurement the waiting time was so long that the mother liquid was clearly separated and after that the RI of the mother liquid was measured. The RIs were measured below 55° C. with an Index Instruments GPR-11-37 refractometer and above 55° C. with a Zeiβ refractometer, both of which were calibrated.
The equilibration of the solution was generally monitored for 7 . . . 14 days, but only for 3 days, when dihydrate was used as seed crystals. […] 150° C. and reading accuracy of 0.2° C. The accuracy of this thermometer was checked against a calibrated thermometer.
After the crystal suspension had reached equilibrium, the crystals were separated by centrifuging 15 min 5000 rpm using a thick cloth. One part of the crystals was dried at 60° C. in a drying cabinet over a night. The water contents of both undried and dried crystals were analyzed by the Karl Fischer method or by a coulometric Karl Fischer method. Furthermore, melting behaviors were analyzed.
The final solubilities at the studied temperatures are shown in Tables 2 and 3 in addition to the crystal forms. The crystal form was concluded from the water contents of the undried crystals and from the melting ranges. The water contents are shown in Tables 4 and 5 and melting behaviors in Table 6.

A short description of data set [2]: Linear curve fittings of the solubility points and stability areas from intersections of solubility curves. It counts as physicochemical. The conditions noted are these: for solubility line s as function of temperature t (linear fitting): t in ° C., s = weight of lactitol/(weight of lactitol+weight of water)×100%, between 100 and 0 ° C. The text has this:
The solubility data of Table 2 was combined with some earlier solubility measurement data. The curve fittings of the solubility points were made as linear fittings, when % by weight is used as a concentration unit. […] The fittings were made with the aid of the spread sheet program Excel 5.0^R. The solubility equations of the different hydrate forms are shown in Equations (I) to (IV): [formula]
The fitting of the trihydrate cannot be considered absolutely exact because only three measurement points were used for fitting: one exact point, one uncertain point and one calculatory point.
The solubility points and the curve fittings are shown in a graph in FIG. 1. […] From the intersections of solubility curves it is possible to conclude the stability areas of the different lactitol forms.

Each structure is given as a SMILES string.

Consider `OC[C@@H](O)[C@@H](O[C@@H]1O[C@H](CO)[C@H](O)[C@H](O)[C@H]1O)[C@H](O)[C@@H](O)CO` [monohydrate, lactitol monohydrate], for which the Solubility in data set [1] (54.7 ° C., lactitol dihydrate used as seed crystals) is on record as 73.4 g/100 g; in data set [1] (55.0 ° C., lactitol monohydrate used as seed crystals), 75.2 g/100 g; in data set [1] (65.0 ° C., lactitol monohydrate used as seed crystals) it was 79.6 g/100 g. Besides, in data set [2] (monohydrate), the “solubility line s as function of temperature t (linear fitting)” value (from here on “solubility line s as function”) was 50.2+0.4346t.

For `OC[C@@H](O)[C@@H](O[C@@H]1O[C@H](CO)[C@H](O)[C@H](O)[C@H]1O)[C@H](O)[C@@H](O)CO` [dihydrate, lactitol dihydrate], the Solubility came to 45.7 g/100 g in data set [1] (10.2 ° C., lactitol monohydrate used as seed crystals); 48.8 g/100 g in data set [1] (15.0 ° C., lactitol monohydrate used as seed crystals); 56.3 g/100 g in data set [1] (25.6 ° C., lactitol monohydrate used as seed crystals); 61.7 g/100 g in data set [1] (35.0 ° C., lactitol monohydrate used as seed crystals); 69.1 g/100 g in data set [1] (45.0 ° C., lactitol dihydrate used as seed crystals). In addition, the “solubility line s as function” value in data set [2] (dihydrate) is listed as 39.7+0.6332t.

For `OC[C@@H](O)[C@@H](O[C@@H]1O[C@H](CO)[C@H](O)[C@H](O)[C@H]1O)[C@H](O)[C@@H](O)CO` [trihydrate, lactitol trihydrate], the Solubility in data set [1] (5.1 ° C., lactitol monohydrate used as seed crystals) is given as 42.3 g/100 g. The “stability area (temperature)” value in data set [2] (in water, from the intersections of solubility curves, trihydrate) is under 12 °C. Besides, the “solubility line s as function” value in data set [2] (trihydrate) is on record as 33.4+1.1482t.
